Test results reported in US20220184071A1, “GEPOTIDACIN FOR USE IN THE TREATMENT OF BACTERIAL URINARY TRACT INFECTIONS” (GlaxoSmithKline Intellectual Property Development Limited, priority 2019, published 2022).
≈ marks a conversion by molar mass, not a printed value.

How the values were obtained:
[1] = system: Staphylococcus saprophyticus; experiment: MIC by CLSI broth microdilution, Example 1 Method 1; type: cell-based
Procedure: Unless otherwise stated, the Clinical and Laboratory Standards Institute (CLSI) recommended procedure is as set out in the edition of CLSI Approved Standard […]. Methods for Dilution Antimicrobial Susceptibility Tests for Bacteria That Grow Aerobically” at the time of testing. Antimicrobial activity was determined by broth microdilution using the CLSI recommended procedure. Gepotidacin was tested in serial two-fold dilutions and the minimum inhibitory concentration (MIC) was determined as the lowest concentration of the compound that inhibited visible growth. Gepotidacin was tested against 28 strains of Staphylococcus saprophyticus collected from multiple hospitals. Amoxicillin, azithromycin, levofloxacin and cefuroxime were included as comparators. MICs for gepotidacin and comparators were determined by broth microdilution according to CLSI methods.

[2] = Saliva exposure, healthy volunteers; type: in vivo, human; conditions: 1500 mg oral single dose
Procedure: Antibiotic target site exposures play a key role as suboptimal levels may lead to therapeutic failure and resistance. Across multiple clinical studies, exposures to gepotidacin were assessed in plasma and other matrices, such as urine, saliva, epithelial lining fluid (ELF) and Alveolar Macrophages (AM).
Bronchoalveolar lavage samples were collected to determine gepotidacin exposures in ELF and AM following a single 1000 mg IV infusion over 2 hours to healthy subjects. Saliva exposure was assessed in healthy volunteers following 1500 mg oral single dose. Gepotidacin exposures in urine was assessed in women with acute uUTI following 1500 mg BID oral doses for 5 days.

[3] = Phase IIa clinical efficacy (ITT population); type: in vivo, human
Procedure: This phase IIa single center study evaluated the safety, tolerability, pharmacokinetics, and efficacy of oral gepotidacin 1500 mg BID for 5 days in female subjects with acute cystitis. Clean catch mid-stream urine specimens were obtained for quantitative culture by standard methods. Urine samples were taken from all participants pre-treatment (baseline) and at all post-baseline visits. All urine samples were sent to a central laboratory (PPD Global Clinical Laboratories, Highland Heights, Ky., USA) for Gram stain, quantitative culture, pathogen identification and susceptibility testing. See FIG. 1 for participant disposition and study outline.
Serial blood and urine PK sampling were performed for the first dose of study treatment on Day 1 and for the time-matched dose on Day 4. Participants took all doses of gepotidacin with food and remained in the clinic to complete a total of 10 doses. Participants were instructed to return for the TOC (Day 10 to 13) and Follow-up (Day 28±3) Visits.
The mean total clinical symptom score in the ITT Population at Baseline was 7.9 (range: 4 to 12) for 4 categories of acute cystitis symptoms consisting of dysuria, frequency, urgency, and lower abdominal or suprapubic pain (score range for each category was 0 to 3). Of the 22 participants enrolled in this Phase IIa study, 19 (86%) and 18 participants (82%) achieved a clinical response of clinical success at the TOC and Follow-up Visits, respectively. […] Lower abdominal or suprapubic pain at Baseline was the most variable symptom category with half of the participants reporting low scores of 0 (27%) or 1 (23%) and the other half of participants reporting high scores of 2 (41%) or 3 (9%). For the other symptom categories, the majority of participants scored a 2.

[4] = system: Clostridium bifermentans; experiment: MIC by CLSI agar dilution, Example 6 second study; type: cell-based; conditions: Paraclostridium bifermentans; 1 isolate
Text: (§1) A second study tested gepotidacin by CLSI agar dilution against gram-positive and gram-negative anaerobic bacterial isolates from the GlaxoSmithKline Upper Providence culture collection. Amoxicillin, azithromycin, levofloxacin, and cefuroxime were included as comparators.

[5] = system: Fusobacterium spp.; experiment: MIC by CLSI agar dilution, Example 6 second study; type: cell-based; conditions: 3 isolates
Text: as §1

[6] = system: Peptostreptococcus spp.; experiment: MIC by CLSI agar dilution, Example 6 second study; type: cell-based; conditions: 4 isolates
Text: as §1

[7] = system: Prevotella spp.; experiment: MIC by CLSI agar dilution, Example 6 second study; type: cell-based; conditions: 1 isolate
Text: as §1

[8] = system: E. coli; experiment: Gepotidacin MIC90 for common uUTI pathogens (stated in conclusions); type: cell-based; conditions: Escherichia coli

For `O=c1ccc2ncc(=O)n3c2n1C[C@H]3CN1CCC(NCc2cc3c(cn2)OCCC3)CC1` [gepotidacin, (2R)-2-({4-[(3,4-dihydro-2H-pyrano[2,3-c]pyridin-6-ylmethyl)amino]-1-piperidinyl}methyl)-1,2-dihydro-3H,8H-2a,5,8a-triazaacenaphthylene-3,8-dione], the MIC90 ([1]; 28 isolates) was 0.125 µg/mL (≈ 0.279 µM), the MIC90 ([1]; conclusion to Methods 1 and 2) was 0.12 µg/mL (≈ 0.268 µM) and the “ratio of saliva AUC to unbound plasma AUC” value [2] was “close to unity”. The “participants with clinical response of clinical success” value ([3]; TOC Visit, 22 participants) was 19 (86%), the “participants with symptom resolution” value ([3]; at Follow-up) was 20 participants and the “participants with symptom resolution (clinical signs and symptom score of 0)” value ([3]; at TOC) was 19 participants. For the same compound, the “time to significant improvement of clinical symptoms (all subjects)” value ([3]; dysuria, frequency, urgency, lower abdominal pain) was 24 to 48 h, the MIC [4] was 0.06 µg/mL (≈ 0.134 µM) and the MIC [5] was 0.12 to 1 µg/mL (≈ 0.268 to 2.23 µM). For the same compound, the MIC [6] was 0.12 to 2 µg/mL (≈ 0.268 to 4.46 µM), the MIC [7] was 4 µg/mL (≈ 8.92 µM) and the MIC90 [8] was 4 µg/mL (≈ 8.92 µM).
